Reference: US20030148929A1, “Nucleic acid carriers and pharmaceutical compositions for gene therapy” (Hisamitsu Pharmaceutical Co., Inc., priority 1998, published 2003)

Experiments:
Balb/c mice [1] = experiment: Survival rate of mice singly administered with high doses of carrier; format: in vivo; details: pDBA, single
Experimental: The survival rate of mice was investigated in the manner described below when high doses of pDBA solution were directly administered to the mice.
pDBA was dissolved in physiological saline solution to prepare pDBA solutions having different concentrations. The pDBA solutions were administered to Balb/c mice intravenously through tail veins, and their symptoms were observed. pDBAs obtained in Synthetic Examples 1-7 (all listed in Table 2) were used. […]

HepG2 cells [2] = experiment: Introduction of FITC-labeled oligonucleotide into HepG2 cells using pDBA, flow cytometer; format: cell-based; details: HepG2, 4 hours, FIG. 11 and 12
Experimental: An oligonucleotide labeled with FITC (20 mer, Pharmacia Corporation) was used to assess the efficiency of introduction into cells for the. complexes of the oligonucleotide with various pDBAs.
HepG2 cells were inoculated onto a 12-well petri dish at 1×10^5 cells/well and cultured for 24 hours. The FITC-labeled oligonucleotide was used, and pDBAs obtained in Synthetic Examples 3 and 5 were used as the nucleic acid carriers. Complexes were prepared from these three kinds (pDBAs and the FITC-labeled oligonucleotide) such that the ratios of oligonucleotide/pDBA were 1/1, 1/5, and 1/10 (w/w). The complex solutions were added to the HepG2 cells; and after culturing for 4 hours, the cells were washed with PBS(−) twice. After removal of PBS(−), the cells were separated from the dish using a cell dissociation solution (SIGMA-Aldrich Corporation) and the cell suspensions were subjected to measurement with a flow cytometer (FACS Calibur available from Becton Dickinson). The results are shown in FIG. 11 (oligonucleotide/pDBA=1/5(w/w)), where M1 represents the results from control experiment and M2 represents the results from the experiment using the FITC-labeled oligonucleotide).

Balb/c mice [3] = experiment: Gene introduction into mice with plasmid A/pDBA complexes given intravenously through tail veins, luciferase activity in tissues; format: in vivo; details: for luciferase activity in the liver: plasmid/pDBA 1/7 (w/w)
Experimental: A solution of plasmid A and a solution of pDBA were prepared, respectively, at twice the desired concentration. Approximately 30 minutes prior to administration, the pDBA solution was added dropwise to the plasmid solution with stirring to prepare a plasmid/(nucleic acid carrier) complex solution. DMEM medium was used as solvent. Specifically, a 50 μg/ml plasmid solution was prepared such that a plasmid/(nucleic acid carrier) complex solution having a plasmid concentration of 25.0 μg/ml would be used as an administration sample.
Complex solutions were prepared from pDBA obtained in Example 3 and plasmid A such that the weight ratio of plasmid/pDBA was 1/7 (w/w) and were administered to Balb/c mice intravenously through tail veins. The dose of plasmid A per mouse was 12.5 μg/0.5 ml. Two days and twenty one days after administration the luciferase activity was measured in the lung, the liver and the spleen whereby gene introduction to the respective were determined.
Complex solutions were prepared from pDBA obtained in Synthetic Example 3 and plasmid A such that different weight ratios of plasmid to pDBA (plasmid/pDBA=1/0, 1/1, 1/5, 1/10, and 1/20) were realized; and they were administered to Balb/c mice intravenously through tail veins.
Two days after administration the luciferase activity found in the liver was measured whereby gene introduction to the respective mouse tissues were determined.
Complexes were prepared from five kinds of pDBA obtained in Synthetic Examples 1, 2, 3, 4, and 5 (all listed in Table 2) and plasmid A such that the weight ratio of plasmid/pDBA was 1/5 (w/w); and they were administered to mice intravenously through tail veins. Two days after administration the luciferase activity in the liver was measured.
Similarly to Example 4, Plasmid A/pDBA complex solutions that were prepared were administered to Balb/C mice (8-week old male) intravenously through tail veins. Gene expression in the liver after administration was assessed by measuring the luciferase activity. pDBA obtained in Synthetic Example 3 in Table 2 was used to prepare a complex solution such that plasmid/pDBA was equal to 1/5 (w/W), which was used in the administration described above.

HepG2 cells [4] = experiment: Gene introduction into HepG2 cells with plasmid A/pDBA complexes, activity of the expressed luciferase; format: cell-based; details: plasmid/pDBA weight ratios 1/1 to 1/20 (w/w), FIG. 3
Experimental: A solution of a plasmid encoding the luciferase gene (about 5.25 kb: PicaGene control vector into which the luciferase gene was previously introduced (Toyo Ink Mfg. Co. Ltd.) that will be referred to as “plasmid A” hereinafter) and a solution of a nucleic acid carrier were prepared, respectively, at twice the desired concentration. Approximately 30 minutes prior to administration, the nucleic acid carrier solution was added dropwise to the plasmid solution with stirring to prepare a plasmid/(nucleic acid carrier) complex solution. DMEM medium (Sigma-Aldrich Corporation) was used as solvent. Specifically, a 25 μg/ml plasmid solution was prepared such that a plasmid/(nucleic acid carrier) complex solution having a plasmid concentration of 12.5 μg/ml would be used as an administration sample.
HepG2 cells were inoculated onto a 12-well multi-well plate (Coaster Inc.) at 1×10^5 cells/well one day prior to testing. […] The luciferase activity of the supernatant was measured on a Luciferase Assay System (Toyo Inc. Mfg. Co. Ltd.) using a luminometer (Lumit LB9501 available from Berthold Pty Ltd.). The protein concentration of the centrifuged supernatant was measured in a Protein Assay Kit (Bio-Rad Laboratories, Inc.) using a microplate reader (Rainbow Thermo available from Tecan U.S., Inc.). […]

[5] = system: guinea pigs (Hartley line); details: guinea pig, in vivo

Poly(DL-2,4-diaminobutyric acid) Acetate [Synthetic Example 2]
Survival rate (survival number/case number) (Balb/c mice [1]; dose 3.1 mg/kg iv, listed as 26, 3.1 mg/kg): 3/3
Survival rate (survival number/case number) (Balb/c mice [1]; dose 6.3 mg/kg iv, listed as 26, 6.3 mg/kg): 3/3

Poly(DL-2,4-diaminobutyric acid) Acetate [Synthetic Example 7]
Survival rate (survival number/case number) (Balb/c mice [1]; dose 3.1 mg/kg iv, listed as 348, 3.1 mg/kg): 1/3
Survival rate (survival number/case number) (Balb/c mice [1]; dose 6.3 mg/kg iv, listed as 348, 6.3 mg/kg): 0/3

Poly(DL-2,4-diaminobutyric acid) Acetate [Synthetic Example 1]
Survival rate (survival number/case number) (Balb/c mice [1]; dose 1.6 mg/kg iv): 3/3
Survival rate (survival number/case number) (Balb/c mice [1]; dose 3.1 mg/kg iv, listed as 12, 3.1 mg/kg): 3/3
Survival rate (survival number/case number) (Balb/c mice [1]; dose 6.3 mg/kg iv, listed as 12, 6.3 mg/kg): 3/3
Survival rate (survival number/case number) (Balb/c mice [1]; dose 12.5 mg/kg iv): 0/3
cellular introduction / incorporation of the FITC-labeled oligonucleotide (HepG2 cells [2]): little incorporation of oligonucleotide

Poly(DL-2,4-diaminobutyric acid) Acetate [Synthetic Example 5]
Survival rate (survival number/case number) (Balb/c mice [1]; dose 3.1 mg/kg iv, listed as 170, 3.1 mg/kg): 3/3
Survival rate (survival number/case number) (Balb/c mice [1]; dose 6.3 mg/kg iv, listed as 170, 6.3 mg/kg): 0/3

Poly(DL-2,4-diaminobutyric acid) Acetate [Synthetic Example 3]
Survival rate (survival number/case number) (Balb/c mice [1]; dose 3.1 mg/kg iv, listed as 49, 3.1 mg/kg): 3/3
Survival rate (survival number/case number) (Balb/c mice [1]; dose 6.3 mg/kg iv, listed as 49, 6.3 mg/kg): 3/3
luciferase activity in the liver (Balb/c mice [3]; 21 days after iv administration, FIG. 5B): maintained even 21 days after administration
duration of gene expression in the liver after a single administration (Balb/c mice [3]; Balb/C mice, iv tail vein, plasmid A, plasmid/pDBA 1/5 (w/W), FIG. 8): ≥ 7 months
gene expression (luciferase activity in the liver) (Balb/c mice [3]; two days after iv administration, plasmid/pDBA 1/0, 1/1, 1/5, 1/10, 1/20, FIG. 6): As the quantity of pDBA relative to the plasmid increases, the gene expression has the tendency to increase
luciferase activity in the liver (Balb/c mice [3]; two days after iv administration, compared with plasmid only, FIG. 5A): markedly high luciferase activity
gene expression (activity of the expressed luciferase) (HepG2 cells [4]): as the quantity of pDBA relative to plasmid increases, so does the gene expression
immunogenicity [5]: very low

Poly(DL-2,4-diaminobutyric acid) Acetate [Synthetic Example 6]
Survival rate (survival number/case number) (Balb/c mice [1]; dose 3.1 mg/kg iv, listed as 278, 3.1 mg/kg): 3/3
Survival rate (survival number/case number) (Balb/c mice [1]; dose 6.3 mg/kg iv, listed as 278, 6.3 mg/kg): 0/3

Poly(DL-2,4-diaminobutyric acid) Acetate [Synthetic Example 4]
Survival rate (survival number/case number) (Balb/c mice [1]; dose 3.1 mg/kg iv, listed as 62, 3.1 mg/kg): 3/3
Survival rate (survival number/case number) (Balb/c mice [1]; dose 6.3 mg/kg iv, listed as 62, 6.3 mg/kg): 2/3
